Consider eight compounds from article PMC8012331, “Drug-induced hepatic steatosis in absence of severe mitochondrial dysfunction in HepaRG cells: proof of multiple mechanism-based toxicity” (Cell Biology and Toxicology, 2020).

Where “and” joins values, the source holds several entries; their conditions need not be identical. Equal entries are not always repeated. Where two headings read alike, the source gives them in different places.

For series [1] the following is noted: patients, ref given per drug, cited from earlier work; for Cmax: read-out: Maximum plasma concentration (Cmax) in patients.
Series [2] can be described thus: Maximum plasma concentration (Cmax) in patients. The format is in vivo, human. Particulars: worked out from cited Cmax in patients.
Series [3] relates to HepaRG cells. Description: Cellular ATP level (CellTiter-Glo) in HepaRG cells. The format is cell-based, human. Particulars: 4 days, vs controls. On the procedure: Cellular ATP level was measured using the CellTiter-Glo® Luminescent Cell Viability assay purchased from Promega (Charbonnières, France), according to the manufacturer’s instructions. Briefly, control and treated HepaRG cells were first washed with warm PBS and kept for 30 min at room temperature in phenol red-free William’s E medium. Cells were next incubated with the CellTiter-Glo® reagent for 10 min at room temperature. Cells were then transferred in opaque-walled multiwell plates and the luminescent signal was quantified using a POLARstar Omega microplate reader (BMG Labtech, Ortenberg, Germany). Results were expressed in comparison to control cells.

The test system of series [4] is HepaRG cells. As to the kind of experiment: Neutral lipids with Nile red in HepaRG cells. The conditions noted are these: 4 days. The method, then:
(§1) Briefly, HepaRG cells were seeded in 96-well plates at a density of 2.6 × 10^4 cells/cm^2 and were first incubated in William’s E medium supplemented with 10% FBS (50% FBS from Eurobio and 50% FBS from GE Healthcare), 100 U/mL penicillin, 100 μg/mL streptomycin, 2 mM glutamine, 5 μg/mL insulin, and 50 μM hydrocortisone hemisuccinate. […] During this 1-month period, the culture medium was renewed three times a week. […] HepaRG cells were next cultured in the same FBS/DMSO conditions and incubated for 4 days with each drug at different concentrations. Culture medium was renewed every day and all investigations were performed after 96 h (i.e., 24 h after the fourth treatment). These investigations were mostly performed in 96-well plates except for western blot analysis, for which 6-well plates were used. Experiments were carried out on passages 9 to 16. All drugs (except DPEN), etomoxir, lomitapide, tunicamycin, thapsigargin, and TUDCA were dissolved in DMSO. DPEN was dissolved in water.
(§2) Cells were then incubated with PBS containing 0.1 μg/mL Nile red for 30 min and washed once. […] For each well, four pictures were taken at a magnification of × 20 and analyzed with Columbus software (PerkinElmer) for quantification. These pictures were always taken in four different areas around the center of each well, and these areas were the same from one well to another, as programmed by the Columbus software. This software was also designed to count only living cells after exclusion of dying cells harboring nuclei with abnormal shape or altered Hoechst intensity. […] Neutral lipids were then normalized per number of nuclei and expressed relative to control cells. Examples of images used for neutral lipid quantification are shown in Supplementary Fig. 2.

The test system of series [5] is de novo lipogenesis (DNL). As to the kind of experiment: DNL from [2-14C]acetic acid in HepaRG cells. Format: cell-based, human. Particulars: 4 days, vs control. On the procedure:
(§3) Experiments were carried out on passages 9 to 16. […] DPEN was dissolved in water.
DNL was assessed by measuring newly synthesized radiolabeled lipids from [2-^14C]acetic acid, using a protocol adapted from Byrne et al. ([2014]). Briefly, culture medium was removed and cells were washed with warm PBS. Next, cells were incubated for 3 h with phenol red-free William’s E medium containing 1% fatty acid-free BSA, [2-^14C]acetic acid (1850 Bq per well, corresponding to 19.4 pM) and 50 μM cold acetic acid. Medium was then gently removed and cells were washed with warm PBS before adding a mix of hexane/isopropanol (3:2; v/v). Cell culture plates were sealed and incubated for 1 h at room temperature for lipid extraction. After transfer of the plate content in 200-μL microtubes, hexane and PBS were added to have a hexane/isopropanol/PBS ratio of 6:2:3 (v/v/v). Microtubes were then centrifuged at 1000×g for 5 min and radiolabeled lipids were counted in the upper phase with a Tri-Carb 4910TR liquid scintillation counter (PerkinElmer). Results were normalized to total protein content and expressed in comparison to control cells.

Series [6] relates to ERN1 (IRE1α). Description: RT-qPCR ERN1 mRNA in HepaRG cells. The format is cell-based, human. Particulars: 4 days, vs control. On the procedure:
Total RNA was extracted with the Nucleospin RNA isolation system purchased from Macherey-Nagel (Düren, Germany), which included a DNase treatment step. Quantification of isolated RNAs was assessed using a Nanodrop 1000 (Thermo Fisher Scientific, Waltham, MA). RNAs were reverse-transcribed into cDNAs using the High-Capacity cDNA Reverse Transcription Kit purchased from Applied Biosystems (Woolston, UK). Gene expression was assessed by real-time quantitative PCR analysis (RT-qPCR) using SYBR Green PCR Master Mix (Applied Biosystems) and a 384-well QuantStudio™ 7 Flex Real-Time PCR System (Thermo Fisher Scientific). Sequences of the primers used to measure gene expression are presented in Supplementary Table 3. Expression of GAPDH was chosen as reference and the 2^−ΔΔCt calculation method was used to express the relative expression of each selected gene.

The conditions of series [7]: treated patients, ref Schulz M et al., Crit Care 2012 ;16(4):R136, cited from earlier work.
In series [8] the test system is primary human hepatocytes (PHH). Description: Neutral lipids with Nile red in primary human hepatocytes. The format is cell-based. Particulars: 4 days. The method, then: Primary human hepatocytes (PHH) were purchased from Biopredic International (Saint-Grégoire, France). Cells were seeded by the supplier in coated 96-well plates at a density of 5 × 10^4 cells/well. Upon receipt, culture medium was removed and replaced by William’s E medium supplemented as previously described for HepaRG cell differentiation, except for DMSO set at 1%. After 2–3 days, cells were treated as for HepaRG cells. For HepaRG cells and PHH, cells were always maintained in incubators at 37 °C with 5% CO2 and saturating humidity.
as §2

In series [9] the test system is mitochondrial fatty acid oxidation (mtFAO). Description: mtFAO with [U-14C]palmitic acid in HepaRG cells. Particulars: 4 days, vs control. The format is cell-based, human. The method, then:
as §3
Results were normalized to total protein content determined using the Pierce BCA assay kit from Thermo Fischer Scientific (Waltham, MA). Results were expressed in comparison to control cells.

The subject of series [10] is apoB secretion. Description: apoB level in culture medium (ELISA), HepaRG cells. Particulars: 4 days, culture medium, vs control. The format is cell-based, human. On the procedure:
as §3
Twenty-four hours after the last treatment, cell supernatants were removed and stored at − 80 °C until use for apolipoprotein measurement. ApoB level was measured using the Human Apolipoprotein B ELISA^pro kit from Mabtech (Nacka Strand, Sweden), according to the manufacturer’s instructions. Briefly, 50 μL of samples were diluted 2× in Apo ELISA buffer before a 2-h incubation in the precoated strip plates provided in the kit. The plates were washed and incubated 1 h with the biotinylated monoclonal anti-human apoB (LDL-11-biotin) antibody. The plates were then washed and incubated 1 h with a streptavidin–horseradish peroxidase conjugated antibody. After another washing, 3,3′,5,5′-tetramethylbenzidine (TMB) was used as substrate for 15 min before adding a stop solution. Absorbance at 450 nm was then measured using a POLARstar Omega microplate reader (BMG Labtech, Ortenberg). ApoB level was calculated utilizing a four-parameter standard curve, and normalized to the total cellular protein content and expressed in comparison to control cells.

The subject of series [11] is apoC3 secretion. Description: apoC3 level in culture medium (HTRF), HepaRG cells. Format: cell-based, human. Particulars: 4 days, culture medium, vs control. On the procedure:
as §1
Apolipoprotein C3 (apoC3) level was measured using the Human Apolipoprotein C3 kit from Cisbio Bioassays (Codolet, France), according to the manufacturer’s instructions. Briefly, 10 μL of supernatants was incubated with two different specific anti-human apoC3 antibodies, one donor and one acceptor. The detection principle of apoC3 is based on HTRF® (Homogeneous Time Resolved Fluorescence), a time-resolved FRET (Förster Resonance Energy Transfer) technology. After 2 h of incubation, light emission was measured with the Infinite F Nano+ microplate reader (Tecan, Männedorf, Switzerland). ApoC3 level was calculated utilizing standard curve, based on the ratio of A665 nm/A615 nm, and normalized to the total cellular protein content. Results were expressed in comparison to control cells.

[12] abbreviates: selected concentrations (ATP loss < 30%, not above 100 × Cmax), vs control.

Turning to `O=c1[nH]cc(F)c(=O)[nH]1` [5FU, 5-fluorouracil], in [1], the “Maximum plasma concentration (Cmax) in patients” value (“Maximum plasma concentration” for short) is ≤ 55000 ng/mL and the Cmax was ≤ 420 µM. In series [2], the “Concentration corresponding to 100xCmax” value is recorded as 42000 µM. Further, in [3], the “Loss of cellular ATP relative to the maximum concentration selected for the study” value was 100 µM (loss of cellular ATP above 30% of the controls for higher concentrations, as shown in Supp. fig 1). For the same compound, the “Accumulation of neutral lipids (steatosis)” value (shortened to “Accumulation”) in [4] (setting [12]) was “significant accumulation of neutral lipids”. The “Effect on DNL” value in [5] is reported as “curb this metabolic pathway”. In series [6], the “ERN1 (IRE1α) mRNA level” value is “enhanced IRE1α mRNA level”. Further, the “Therapeutic blood (or plasma) concentration in patients” value (“Therapeutic blood” below) in series [7] (listed as 5-Fluorouracil (5FU)) is 0.05 - 0.3 mg/L and 0.38 - 2.3 µM. The “Steatosis in PHH batches (six batches tested)” value in series [8] was “induced steatosis in only one PHH batch”. Besides, the “Effect on mtFAO” value in series [9] was “significantly enhance mtFAO”. For the same compound, the “Effect on apoB secretion” value in [10] was “reduced the secretion”. Also, the “Effect on apoC3 secretion” value in [11] is on record as “reduced the secretion”.
For `Oc1ncnc2[nH]ncc12` [ALLO, allopurinol], in [1], the “Maximum plasma concentration” value was ≤ 2050 ng/mL and the Cmax is ≤ 15 µM. In series [2], the “Concentration corresponding to 100xCmax” value turned out to be 1500 µM. The “Loss of cellular ATP relative to the maximum concentration selected for the study” value in [3] is recorded as 750 µM (loss of cellular ATP above 30% of the controls for higher concentrations, as shown in Supp. fig 1). The “Accumulation” value in series [4] (setting [12]) is “significant accumulation of neutral lipids”. In addition, the “Effect on DNL” value in [5] was “curb this metabolic pathway”. Also, the “ERN1 (IRE1α) mRNA level” value in series [6] was “enhanced IRE1α mRNA level”. Also, in series [7] (listed as Allopurinol (ALLO)), the “Therapeutic blood” value is 2 - 19 mg/L and 15 - 140 µM. For the same compound, the “Steatosis in PHH batches (six batches tested)” value in series [8] is on record as “accumulation of neutral lipids in five PHH batches”. Further, the “Effect on mtFAO” value in [9] is listed as “significantly enhance mtFAO”. Moreover, the “Effect on apoB secretion” value in [10] was “reduced the secretion”. The “Effect on apoC3 secretion” value in [11] was “reduced the secretion”.
Consider `CC(C)(S)[C@@H](N)C(=O)O` [DPEN, D-penicillamine], for which, in [1], the “Maximum plasma concentration” value is ≤ 3760 ng/mL. Moreover, the Cmax in series [1] is ≤ 25 µM. The “Concentration corresponding to 100xCmax” value in series [2] is recorded as 2500 µM. The “Loss of cellular ATP relative to the maximum concentration selected for the study” value in series [3] is on record as 2500 µM (slight loss of cellular ATP for this concentration, as shown in Supp. fig 1). The “Accumulation” value in series [4] (concentrations above 100 × Cmax (100 μM NIF, 5000 μM DPEN)) is reported as “significant accumulation of neutral lipids”; in series [4] (setting [12]), “did not induce steatosis”. Further, in series [7] (listed as D-penicillamine (DPEN)), the “Therapeutic blood” value is 1.7 - 5.6 mg/L and 11.4 - 37.6 µM.
As to `CC(C)(C)NC(=O)[C@@H]1CN(Cc2cccnc2)CCN1C[C@@H](O)C[C@@H](Cc1ccccc1)C(=O)N[C@H]1c2ccccc2C[C@H]1O` [INDI, indinavir], in series [1], the “Maximum plasma concentration” value was ≤ 8000 ng/mL and the Cmax was ≤ 13 µM. The “Concentration corresponding to 100xCmax” value in series [2] is on record as 1300 µM. Also, the “Accumulation” value in [4] (setting [12]) is on record as “significant accumulation of neutral lipids”. Besides, the “Effect on DNL” value in series [5] was “curb this metabolic pathway”. Moreover, the “Effect on apoB secretion” value in series [10] is “reduced the secretion”. In addition, the “Effect on apoC3 secretion” value in series [11] is “reduced the secretion”.
Regarding `Cn1cc[nH]c1=S` [METHI, methimazole], in series [1], the “Maximum plasma concentration” value is ≤ 1500 ng/mL and the Cmax is ≤ 13 µM. Further, the “Accumulation” value in series [4] (setting [12]) is given as “did not induce steatosis”. Besides, in [7] (listed as Methimazole (METHI)), the “Therapeutic blood” value is 0.5 - 2.5 mg/L and 4.4 - 22 µM.
`COC(=O)C1=C(C)NC(C)=C(C(=O)OC)C1c1ccccc1[N+](=O)[O-]` [NIF, nifedipine]: in series [7] (listed as Nifedipine (NIF)), the “Therapeutic blood” value was 0.025 - 0.15 mg/L and 0.07 - 0.43 µM.
Regarding `CCOC(=O)[C@@]1(CCCCCCOc2ccc(Cl)cc2)CO1` [etomoxir, (+)-etomoxir], the “Effect on mtFAO” value in series [9] is “blocked”.
For the compound `O=C(NC1CCN(CCCCC2(C(=O)NCC(F)(F)F)c3ccccc3-c3ccccc32)CC1)c1ccccc1-c1ccc(C(F)(F)F)cc1` [lomitapide], the “Effect on apoB secretion” value in [10] is “inhibited”.
